Measurements as given in patent US20250002475A1 (EPICS THERAPEUTICS, priority 2023, published 2025).

How the values were obtained:
[1] = system: Kasumi-1 cells; test: Kasumi-1 cellular viability assay (ATP-Lite, 72 h); format: cell-based; details: Homo sapiens, ATP-Lite luminescence, % viability relative to DMSO
In short: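 Kasumi-1 AML cells, 15000/well in RPMI-1640 with 10% FBS, were exposed to compound titrations (0.1% final DMSO) for 72 h at 37 °C, 5% CO2. ATP-Lite One Step luminescence gave % viability versus DMSO control, and IC50 came from the concentration-response.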

[2] = target: T1, recombinant METTL3/METTL14 complex (Homo sapiens, UniProt Q86U44); test: METTL3/14 Scintillation Proximity Assay (SPA), RNA methyltransferase activity; format: biochemical; details: 5.31 nM METTL3/14 complex, 250 nM RNA substrate, 1 μM 3H-SAM, 90 min; for compounds marked * best of the two separated forms
T1 construct: purchased Active Motif 311970; host or cells: Sf9 cells

[3] = system: Caov-3 cells; test: Caov-3 cellular viability assay (ATP-Lite, 72 h); format: cell-based; details: Homo sapiens, ATP-Lite luminescence, % viability relative to DMSO
In short: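 10000 cells/well treated 72 h at 37 °C, 5% CO2, in RPMI-1640 with 10% FBS and 0.1% DMSO final. Viability by ATP-Lite One Step luminescence. Expressed as % of DMSO control, with IC50 from each compound's concentration-response curve.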

T1 sequence (Q86U44 whole entry): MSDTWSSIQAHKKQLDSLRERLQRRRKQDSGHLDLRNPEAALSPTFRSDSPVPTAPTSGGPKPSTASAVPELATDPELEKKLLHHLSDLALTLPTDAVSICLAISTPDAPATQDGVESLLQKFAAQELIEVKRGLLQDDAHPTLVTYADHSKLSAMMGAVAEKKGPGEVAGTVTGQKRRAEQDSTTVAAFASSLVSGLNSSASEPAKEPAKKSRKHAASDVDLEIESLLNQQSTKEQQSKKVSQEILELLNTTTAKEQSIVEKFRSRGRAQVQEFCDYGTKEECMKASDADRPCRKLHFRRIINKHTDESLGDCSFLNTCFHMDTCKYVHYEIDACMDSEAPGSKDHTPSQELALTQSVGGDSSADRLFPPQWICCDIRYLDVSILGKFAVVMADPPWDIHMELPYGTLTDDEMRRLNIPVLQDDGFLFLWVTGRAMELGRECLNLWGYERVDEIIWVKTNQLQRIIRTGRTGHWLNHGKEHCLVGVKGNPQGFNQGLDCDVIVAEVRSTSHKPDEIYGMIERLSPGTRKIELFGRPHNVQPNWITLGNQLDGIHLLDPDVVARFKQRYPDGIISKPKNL
T1 sequence (Q9HCE5 whole entry partner): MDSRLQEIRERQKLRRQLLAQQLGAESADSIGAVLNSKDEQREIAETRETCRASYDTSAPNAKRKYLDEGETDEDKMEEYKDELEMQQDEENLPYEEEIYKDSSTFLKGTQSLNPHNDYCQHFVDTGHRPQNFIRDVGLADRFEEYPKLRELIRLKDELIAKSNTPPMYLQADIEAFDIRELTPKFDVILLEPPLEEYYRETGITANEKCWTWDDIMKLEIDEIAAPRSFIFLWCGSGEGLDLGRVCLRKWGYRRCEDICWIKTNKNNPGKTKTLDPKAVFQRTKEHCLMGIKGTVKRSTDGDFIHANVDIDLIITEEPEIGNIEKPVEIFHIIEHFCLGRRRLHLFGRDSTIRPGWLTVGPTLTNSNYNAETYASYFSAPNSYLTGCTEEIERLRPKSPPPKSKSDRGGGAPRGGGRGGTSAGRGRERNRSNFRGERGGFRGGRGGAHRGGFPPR

| IC50 [2] | SMILES | IC50 [1] | IC50 [3] |
| --- | --- | --- | --- |
| ≤ 50 nM | c1ncc(N2CCCC2)cc1-c1cn(C2(c3ccc(N4CCC[C@@H](NCC5CC5)C4)cn3)COC2)nn1 [Compound 194, (R)-N-(cyclopropylmethyl)-1-(6-(3-(4-(5-(pyrrolidin-1-yl)pyridin-3-yl)-1H-1,2,3-triazol-1-yl)oxetan-3-yl)pyridin-3-yl)piperidin-3-amine] | ≤ 500 nM | ≤ 500 nM |
| ≤ 50 nM | CC(c1ccc(N2CCC[C@@H](NCC3(C)CC3)C2)cn1)c1nnc(-c2cncc(N3CCCC3)n2)s1 (single isomer, unassigned) [Compound 366] | ≤ 500 nM | ≤ 500 nM |
| ≤ 50 nM | CC1(CN[C@@H]2CCCN(c3ccc(C4(n5cc(-c6cncc(C7CC7)c6)nn5)COC4)nc3)C2)CC1 [Compound 333, (R)-1-(6-(3-(4-(5-cyclopropylpyridin-3-yl)-1H-1,2,3-triazol-1-yl)oxetan-3-yl)pyridin-3-yl)-N-((1-methylcyclopropyl)methyl)piperidin-3-amine] | ≤ 500 nM | ≤ 500 nM |
| ≤ 50 nM | CC(c1ccc(N2CCC[C@@H](NCC3CC3)C2)cn1)c1nnc(-c2cncc(N3CCCC3)n2)s1 (single isomer, unassigned) [Compound 360] | ≤ 500 nM | ≤ 500 nM |
| ≤ 50 nM | COc1cc(-c2cn(Cc3nnc(N4CCCC(NCC5CCC5)C4)s3)nn2)c2cn[nH]c2c1 (stereo not drawn) [Compound 036, N-(cyclobutylmethyl)-1-(5-((4-(6-methoxy-1H-indazol-4-yl)-1H-1,2,3-triazol-1-yl)methyl)-1,3,4-thiadiazol-2-yl)piperidin-3-amine] | > 5000 nM | > 5000 nM |
| ≤ 50 nM | CC(n1cc(-c2cncc(OCC(F)(F)F)c2)nn1)n1ccc(N2CCC[C@@H](NCC3CCC3)C2)cc1=O (single isomer, unassigned) [Compound 200] | 500 to 5000 nM | 500 to 5000 nM |
| ≤ 50 nM | COc1cc(-c2cn(Cc3ccc(N4CCCC(NC5CC56CCC6)C4)nn3)nn2)c2cn[nH]c2c1 (stereo not drawn) [Compound 025, 1-(6-((4-(6-methoxy-1H-indazol-4-yl)-1H-1,2,3-triazol-1-yl)methyl)pyridazin-3-yl)-N-(spiro[2.3]hexan-1-yl)piperidin-3-amine] | 500 to 5000 nM | ≤ 500 nM |
| ≤ 50 nM | C[C@@H]1CCN(c2cncc(-c3cn(C4(c5ccc(N6CCC[C@@H](NCC7CC7)C6)cn5)COC4)nn3)n2)C1 [Compound 244, (R)-N-(cyclopropylmethyl)-1-(6-(3-(4-(6-((R)-3-methylpyrrolidin-1-yl)pyrazin-2-yl)-1H-1,2,3-triazol-1-yl)oxetan-3-yl)pyridin-3-yl)piperidin-3-amine] | ≤ 500 nM | ≤ 500 nM |
| ≤ 50 nM | Cn1c(N2CCCC2)cc(NC(=O)C2(c3ccc(N4CCC[C@@H](NCC5CCC5)C4)cn3)COC2)cc1=O [Compound 310, (R)-3-(5-(3-((cyclobutylmethyl)amino)piperidin-1-yl)pyridin-2-yl)-N-(1-methyl-2-oxo-6-(pyrrolidin-1-yl)-1,2-dihydropyridin-4-yl)oxetane-3-carboxamide] | 500 to 5000 nM | ≤ 500 nM |
| ≤ 50 nM | FC1(F)CC(CN[C@@H]2CCCN(c3ccc(C4(n5cc(-c6cncc(C7CC7)c6)nn5)COC4)nc3)C2)C1 [Compound 341, (R)-1-(6-(3-(4-(5-cyclopropylpyridin-3-yl)-1H-1,2,3-triazol-1-yl)oxetan-3-yl)pyridin-3-yl)-N-((3,3-difluorocyclobutyl)methyl)piperidin-3-amine] | ≤ 500 nM | ≤ 500 nM |
| ≤ 50 nM | COC1CN(c2cncc(-c3cn(C(C)n4ccc(N5CCC[C@@H](NCC6CCC6)C5)cc4=O)nn3)c2)C1 (single isomer, unassigned) [Compound 199] | ≤ 500 nM | ≤ 500 nM |
| ≤ 50 nM | CC(c1cnn(-c2cncc(N(C)C)n2)c1)n1ccc(N2CCC[C@@H](NCC3CC3)C2)cc1=O (single isomer, unassigned) [Compound 225] | ≤ 500 nM | ≤ 500 nM |
| ≤ 50 nM | CC(c1cnc(-c2cncc(N3CCCC3)n2)o1)n1ccc(N2CCC[C@@H](NCC3CC3)C2)cc1=O (single isomer, unassigned) [Compound 242] | ≤ 500 nM | ≤ 500 nM |
| ≤ 50 nM | CC(n1cc(-c2cncc(C3CC3)c2)nn1)n1ccc(N2CCC[C@@H](NCC3CC3)C2)cc1=O (stereo partly drawn) [Compound 320, 4-((R)-3-((cyclopropylmethyl)amino)piperidin-1-yl)-1-(1-(4-(5-cyclopropylpyridin-3-yl)-1H-1,2,3-triazol-1-yl)ethyl)pyridin-2(1H)-one] | ≤ 500 nM | ≤ 500 nM |
| ≤ 50 nM | CC(c1cnc(-c2cncc(N3CCCC3)n2)s1)n1ccc(N2CCC[C@@H](NCC3CC3)C2)cc1=O (stereo partly drawn) [Compound 233, 4-((R)-3-((cyclopropylmethyl)amino)piperidin-1-yl)-1-(1-(2-(6-(pyrrolidin-1-yl)pyrazin-2-yl)thiazol-5-yl)ethyl)pyridin-2(1H)-one] | ≤ 500 nM | ≤ 500 nM |
| ≤ 50 nM | COc1cc(-c2cn(C(C)c3ccc(N4CCC[C@@H](NCC5CCC5)C4)nn3)nn2)c2cn[nH]c2c1 (single isomer, unassigned) [Compound 037] | ≤ 500 nM | ≤ 500 nM |
| ≤ 50 nM | CC#Cc1cncc(-c2cn(C3(c4ccc(N5CCC[C@@H](NCC6CC6)C5)cn4)COC3)nn2)c1 [Compound 345, (R)-N-(cyclopropylmethyl)-1-(6-(3-(4-(5-(prop-1-vn-1-yl)pyridin-3-yl)-1H-1,2,3-triazol-1-yl)oxetan-3-yl)pyridin-3-yl)piperidin-3-amine] | ≤ 500 nM | ≤ 500 nM |
| ≤ 50 nM | COc1cncc(-c2cn(C(C)c3ccc(N4CCC[C@@H](NCC5CCC5)C4)cc3)nn2)c1 (mixture of isomers) [Compound 076, (3R)-N-(cyclobutylmethyl)-1-(4-(1-(4-(5-methoxypyridin-3-yl)-1H-1,2,3-triazol-1-yl)ethyl)phenyl)piperidin-3-amine] | 500 to 5000 nM | 500 to 5000 nM |
| ≤ 50 nM | CN(CC1CCC1)[C@@H]1CCCN(c2ccc(C3(C(=O)Nc4cc(=O)n5ccccc5n4)COC3)nc2)C1 [Compound 272, (R)-3-(5-(3-((cyclobutylmethyl)(methyl)amino)piperidin-1-yl)pyridin-2-yl)-N-(4-oxo-4H-pyrido[1,2-a]pyrimidin-2-yl)oxetane-3-carboxamide] | 500 to 5000 nM | 500 to 5000 nM |
| ≤ 50 nM | CN(C)c1cncc(-c2cn(C3(c4ccc(N5CCC[C@@H](NCC6CCC6)C5)cc4)COC3)nn2)c1 [Compound 148, (R)-5-(1-(3-(4-(3-((cyclobutylmethyl)amino)piperidin-1-yl)phenyl)oxetan-3-yl)-1H-1,2,3-triazol-4-yl)-N,N-dimethylpyridin-3-amine] | ≤ 500 nM | ≤ 500 nM |
| ≤ 50 nM | CC(c1cnn(-c2cncc(N3CCCC3)c2)c1)n1ccc(N2CCC[C@@H](NCC3CC3)C2)cc1=O (single isomer, unassigned) [Compound 253] | ≤ 500 nM | ≤ 500 nM |
| ≤ 50 nM | c1cc2cc(-c3cn(Cc4ccc(N5CCC[C@@H](NCC6CCC6)C5)nn4)nn3)cnc2[nH]1 [Compound 009, (R)-1-(6-((4-(1H-pyrrolo[2,3-b]pyridin-5-yl)-1H-1,2,3-triazol-1-yl)methyl)pyridazin-3-yl)-N-(cyclobutylmethyl)piperidin-3-amine] | 500 to 5000 nM | 500 to 5000 nM |
| ≤ 50 nM | COc1cc(-c2cn(Cc3ccc(N4CCCC(N5CCC(C)(C)CC5)C4)nn3)nn2)c2cn[nH]c2c1 (stereo not drawn) [Compound 006, 4-(1-((6-(4,4-dimethyl-[1,3′-bipiperidin]-1′-yl)pyridazin-3-yl)methyl)-1H-1,2,3-triazol-4-yl)-6-methoxy-1H-indazole] | 500 to 5000 nM | 500 to 5000 nM |
| ≤ 50 nM | CC(n1cc(-c2cncc(N3CCC3)c2)nn1)n1ccc(N2CCC[C@@H](NCC3CCC3)C2)cc1=O (single isomer, unassigned) [Compound 161] | ≤ 500 nM | ≤ 500 nM |
| ≤ 50 nM | COc1cc(-c2cn(Cc3ccc(N4CCC[C@@H](NCC(C)(C)C)C4)nn3)nn2)c2cn[nH]c2c1 [Compound 032, (R)-1-(6-((4-(6-methoxy-1H-indazol-4-yl)-1H-1,2,3-triazol-1-yl)methyl)pyridazin-3-yl)-N-neopentylpiperidin-3-amine] | 500 to 5000 nM | ≤ 500 nM |
| ≤ 50 nM | CC(C)(c1ccc(N2CCC[C@@H](NCC3CC3)C2)cn1)c1nnc(-c2cncc(N3CCCC3)n2)s1 [Compound 364, (R)-N-(cyclopropylmethyl)-1-(6-(2-(5-(6-(pyrrolidin-1-yl)pyrazin-2-yl)-1,3,4-thiadiazol-2-yl)propan-2-yl)pyridin-3-yl)piperidin-3-amine] | ≤ 500 nM | ≤ 500 nM |
| ≤ 50 nM | O=C(Nc1cc(=O)n2ccccc2n1)C1(c2ccc(N3CCC[C@@H](NC4CCCC4)C3)cn2)COC1 [Compound 326, (R)-3-(5-(3-(cyclopentylamino)piperidin-1-yl)pyridin-2-yl)-N-(4-oxo-4H-pyrido[1,2-a]pyrimidin-2-yl)oxetane-3-carboxamide] | 500 to 5000 nM | ≤ 500 nM |
